# Assay results published in US20170105969A1, “CENICRIVIROC FOR THE TREATMENT OF HIV-2 INFECTION” (Tobira Therapeutics, Inc., priority 2014, published 2017).
# Molecular target: T1, CCR4 (Homo sapiens, UniProt P51679)
# T1 sequence (P51679 1-360): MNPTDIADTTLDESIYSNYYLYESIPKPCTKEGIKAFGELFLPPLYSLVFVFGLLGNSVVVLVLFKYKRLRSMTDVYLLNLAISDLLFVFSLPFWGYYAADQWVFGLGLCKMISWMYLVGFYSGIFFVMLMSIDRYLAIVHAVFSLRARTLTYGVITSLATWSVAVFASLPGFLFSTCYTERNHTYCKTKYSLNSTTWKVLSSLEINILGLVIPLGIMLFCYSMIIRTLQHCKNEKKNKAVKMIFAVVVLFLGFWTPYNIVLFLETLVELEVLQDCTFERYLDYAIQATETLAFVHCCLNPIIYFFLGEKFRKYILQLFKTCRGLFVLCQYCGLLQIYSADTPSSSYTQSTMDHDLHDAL
# Assay: Ligand binding to CCR4
structure (smiles),measurement,value
"CCCCOCCOc1ccc(-c2ccc3c(c2)/C=C(/C(=O)Nc2ccc([S@@+]([O-])Cc4cncn4CCC)cc2)CCCN3CC(C)C)cc1 [CVC, (S)-8-[4-(2-Butoxyethoxy)phenyl]-1-isobutyl-N-(4-{[(1-propyl-1H-imidazol-5-yl)methyl]sulfinyl}phenyl)-1,2,3,4-tetrahydro-1-benzazocine-5-carboxamide]",inhibition of ligand binding (in words),weakly inhibited
